Reference: publication PMC7996082, “The translocator protein ligands as mitochondrial functional modulators for the potential anti-Alzheimer agents” (Journal of Enzyme Inhibition and Medicinal Chemistry, 2021)

How the values were obtained:
[1] = MTT assay: HT22 cell viability with compound alone; type: cell-based, mouse; settings: mouse, HT22 cells; HT22 cell viability after 24 h of treatment with 5 μM compound, no Aβ
Protocol: To a clear 96-well plate (FALCON), the cultured HT-22 cells were seeded in a number of 5,000 per well 24 h prior to the assay. A solution of each test compound (5 µM, 25 µL) was added to each well. After 24 h of incubation at 37 °C, the cells were treated with a 10 µL of MTT solution (3–(4,5-dimethylthiazol-2-yl)-2,5-diphenyltetrazolium bromide, Sigma-Aldrich), incubated for 2 h at 37 °C, and were treated with 135 µL of MTT solubilising solution (10% Triton-X 100 in isopropanol with 0.1 M HCl) for 2 h at 37 °C. The % values of cell viability were determined by using the optical density (OD) values at 560 nm, and normalised by taking the vehicle control (5 µM of DMSO) as […].

hERG channel = molecular target: T1, hERG channel (Homo sapiens, UniProt Q12809); assay: hERG inhibition assay (automated patch-clamp, CHO-K1 Tet-On hERG cells); type: cell-based; settings: patch-clamp, ± SD
T1 construct: host or cells: CHO-K1 Tet-On hERG cells
T1 sequence (Q12809 whole entry): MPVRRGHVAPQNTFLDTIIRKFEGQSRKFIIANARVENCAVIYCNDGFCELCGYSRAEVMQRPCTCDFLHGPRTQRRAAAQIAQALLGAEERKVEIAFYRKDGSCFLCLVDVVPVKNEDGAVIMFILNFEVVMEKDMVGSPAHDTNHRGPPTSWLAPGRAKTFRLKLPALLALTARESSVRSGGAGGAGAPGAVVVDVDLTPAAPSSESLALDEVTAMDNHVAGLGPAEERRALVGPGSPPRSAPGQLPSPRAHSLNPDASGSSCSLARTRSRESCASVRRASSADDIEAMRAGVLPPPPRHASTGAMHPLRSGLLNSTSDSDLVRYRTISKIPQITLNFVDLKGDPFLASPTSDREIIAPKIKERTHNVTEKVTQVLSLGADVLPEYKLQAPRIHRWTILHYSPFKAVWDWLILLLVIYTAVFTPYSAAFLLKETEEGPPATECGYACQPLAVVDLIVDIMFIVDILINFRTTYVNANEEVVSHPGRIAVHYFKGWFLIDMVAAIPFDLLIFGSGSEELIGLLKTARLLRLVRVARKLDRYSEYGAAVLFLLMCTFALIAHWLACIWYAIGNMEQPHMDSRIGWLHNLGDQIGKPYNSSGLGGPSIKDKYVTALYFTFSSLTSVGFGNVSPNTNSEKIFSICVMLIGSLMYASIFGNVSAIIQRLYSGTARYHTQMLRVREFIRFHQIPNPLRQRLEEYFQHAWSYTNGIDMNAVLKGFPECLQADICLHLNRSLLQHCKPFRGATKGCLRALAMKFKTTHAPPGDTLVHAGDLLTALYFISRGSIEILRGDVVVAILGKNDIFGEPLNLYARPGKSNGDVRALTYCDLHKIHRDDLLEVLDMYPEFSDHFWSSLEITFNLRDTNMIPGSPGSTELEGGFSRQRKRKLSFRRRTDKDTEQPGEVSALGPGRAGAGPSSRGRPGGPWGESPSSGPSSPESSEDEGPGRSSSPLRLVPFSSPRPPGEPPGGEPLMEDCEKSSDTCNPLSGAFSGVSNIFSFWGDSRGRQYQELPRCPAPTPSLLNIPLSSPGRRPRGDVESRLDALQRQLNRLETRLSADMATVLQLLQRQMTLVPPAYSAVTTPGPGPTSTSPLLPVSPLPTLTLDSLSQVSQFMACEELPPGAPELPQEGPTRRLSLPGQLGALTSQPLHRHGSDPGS
Protocol: For automated patch-clamp NPC-16 Patchliner (Nanion Technologies, München, Germany) recordings, CHO-K1 Tet-On hERG cells (IonGate Biosciences GmbH, Frankfurt, Germany) were plated into 100-mm cell culture dishes. Whole-cell currents were recorded with the intracellular solution containing: 50 mM KCl, 60 mM KF, 10 mM NaCl, 2 mM MgCl2, 20 mM EGTA and 10 mM HEPES (pH 7.2), and with the extracellular solution containing: 140 mM NaCl, 4 mM KCl, 2 mM CaCl2, 1 mM MgCl2, 5 mM Glucose and 10 HEPES (pH 7.4). To assist stable seal formations, the seal enhancer containing: 80 mM NaCl, 3 mM KCl, 35 mM CaCl2, 10 mM MgCl2 and 10 mM HEPES (pH 7.4) was used only at the seal formation step. Prior to the whole-cell recordings, the external seal enhancing solution was exchanged to the extracellular solution described above. hERG channel currents were recorded using the parallel EPC-10 patch-clamp amplifiers (HEKA Elektronik, Lambrecht/Pfalz, Germany), and low-pass filtered (10 kHz) with a 4-pole Bessel filter. Cell suspension and patch solutions were automatically added onto the four recording wells in the microfabricated disposable chip (NPC-16 Chip, Nanion Technologies, München, Germany). To obtain the inhibitory constants, hERG tail currents were evoked by repolarizing steps to −50 mV for 500 ms preceded by a 500-ms depolarisation potential of +20 mV at a holding potential of −80 mV with a 20-s sweep interval. Whole-cell currents were acquired and digitised at 5 kHz using Patchmaster (HEKA Elektronik, Lambrecht/Pfalz, Germany). The extracellular solution was exchanged to the extracellular solution containing each blocker via four pipette tips of NPC-16 Patchliner using a 4-fold volume of solution (40 µL) with a speed of 4 µL/s, and the exchanged blocker solution was applied for 100–200 s to the patch-clamped cells until blocker binding had reached equilibrium by monitoring hERG tail currents. Whole-cell recordings were analysed using the Patchmaster/Fitmaster (HEKA Elektronik, Lambrecht/Pfalz, Germany), IGOR Pro (WaveMetrics Inc., Portland, OR, USA), and the GraphPad Prism 4.0 (GraphPad Software, Inc., La Jolla, CA, USA) software.

CYP2C9 = molecular target: T2, CYP2C9 (Homo sapiens, UniProt P11712); assay: CYP inhibition assay (Vivid CYP450 screening kit); type: in vitro ADME; settings: 10 μM compound
T2 construct: purchased Invitrogen, Madison, WI, USA
T2 sequence (P11712 whole entry): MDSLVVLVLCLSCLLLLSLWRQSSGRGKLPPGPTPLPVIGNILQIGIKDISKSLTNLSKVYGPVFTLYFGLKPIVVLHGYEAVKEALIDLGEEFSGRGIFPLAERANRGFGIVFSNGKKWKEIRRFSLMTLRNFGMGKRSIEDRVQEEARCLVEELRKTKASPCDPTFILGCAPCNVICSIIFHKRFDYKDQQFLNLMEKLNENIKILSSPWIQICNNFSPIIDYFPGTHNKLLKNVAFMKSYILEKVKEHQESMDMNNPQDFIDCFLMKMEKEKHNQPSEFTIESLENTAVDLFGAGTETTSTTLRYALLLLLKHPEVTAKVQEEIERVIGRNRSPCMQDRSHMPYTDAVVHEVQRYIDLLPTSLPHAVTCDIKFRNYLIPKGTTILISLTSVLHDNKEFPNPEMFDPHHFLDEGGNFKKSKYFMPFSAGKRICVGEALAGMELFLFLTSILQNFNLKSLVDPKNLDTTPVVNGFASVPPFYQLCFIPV
Protocol: (§1) Human CYP450 (CYP1A2, 2D6, 2C9, 2C19, and 3A4) activities were determined by using the Vivid® CYP450 screening kit (Invitrogen, Madison, WI, USA) in a clear 96-well plate. Five positive controls were used as 10 mM solutions in MeCN for five different CYP450 enzymes: CYP1A2 (α-naphthoflavone), CYP2D6 (quinidine), CYP2C9 (sulfaphenazole), CYP2C19 (lansoprazole), and CYP3A4 (ketoconazole). Each sample (test compounds, positive inhibition controls, and solvent controls) was added into each well with the Master Pre-Mix [CYP450 BACULOSOMES® Reagent (recombinant human CYP450 isozyme and rabbit NADPHP450 reductase) and Regeneration System (3.3 mM glucose-6-phosphate and 0.3 U/ml glucose-6-phosphate dehydrogenase in 100 mM potassium phosphate, pH 8.0)]. The mixture was incubated for 5 min at 37 °C, and the Vivid® CYP substrates and 0.1 mM NADP^+ buffer were added to initiate the CYP450 enzyme reaction. The % remaining activities of CYP450 were measured after 20 min by using a fluorescent plate reader (Flexstation® 3, Molecular Devices, USA).

CYP2C19 = molecular target: T3, CYP2C19 (Homo sapiens, UniProt P33261); assay: CYP inhibition assay (Vivid CYP450 screening kit); type: in vitro ADME; settings: 10 μM compound
T3 construct: purchased Invitrogen, Madison, WI, USA
T3 sequence (P33261 whole entry): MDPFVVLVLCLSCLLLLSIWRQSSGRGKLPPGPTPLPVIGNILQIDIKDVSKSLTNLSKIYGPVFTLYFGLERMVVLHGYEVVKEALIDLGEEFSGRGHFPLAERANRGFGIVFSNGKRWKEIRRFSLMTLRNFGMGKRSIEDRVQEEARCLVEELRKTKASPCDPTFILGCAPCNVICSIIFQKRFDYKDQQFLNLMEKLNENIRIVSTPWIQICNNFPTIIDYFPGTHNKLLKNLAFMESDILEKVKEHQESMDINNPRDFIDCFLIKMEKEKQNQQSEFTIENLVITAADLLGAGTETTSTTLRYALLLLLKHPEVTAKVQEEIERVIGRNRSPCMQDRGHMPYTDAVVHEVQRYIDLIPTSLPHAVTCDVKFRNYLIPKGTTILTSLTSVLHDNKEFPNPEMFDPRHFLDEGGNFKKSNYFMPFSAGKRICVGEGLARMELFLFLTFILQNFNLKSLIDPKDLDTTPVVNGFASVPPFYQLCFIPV
Protocol: as §1

CYP2D6 = molecular target: T4, CYP2D6 (Homo sapiens, UniProt P10635); assay: CYP inhibition assay (Vivid CYP450 screening kit); type: in vitro ADME; settings: 10 μM compound
T4 construct: purchased Invitrogen, Madison, WI, USA
T4 sequence (P10635 whole entry): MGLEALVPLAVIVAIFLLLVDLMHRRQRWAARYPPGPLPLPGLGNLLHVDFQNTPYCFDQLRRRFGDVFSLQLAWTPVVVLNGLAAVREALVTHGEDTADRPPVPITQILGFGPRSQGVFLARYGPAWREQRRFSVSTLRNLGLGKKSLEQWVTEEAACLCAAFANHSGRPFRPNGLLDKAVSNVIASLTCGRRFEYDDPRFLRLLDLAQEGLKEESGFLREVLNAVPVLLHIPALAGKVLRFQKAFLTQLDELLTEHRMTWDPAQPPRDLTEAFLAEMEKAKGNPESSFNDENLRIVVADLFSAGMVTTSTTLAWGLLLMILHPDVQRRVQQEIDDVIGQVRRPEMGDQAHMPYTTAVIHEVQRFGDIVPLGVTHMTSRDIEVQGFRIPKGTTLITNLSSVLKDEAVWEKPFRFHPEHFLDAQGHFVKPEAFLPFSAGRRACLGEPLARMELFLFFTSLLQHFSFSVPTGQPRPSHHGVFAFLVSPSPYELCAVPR
Protocol: as §1

CYP3A4 = molecular target: T5, CYP3A4 (Homo sapiens, UniProt P08684); assay: CYP inhibition assay (Vivid CYP450 screening kit); type: in vitro ADME; settings: 10 μM compound
T5 construct: purchased Invitrogen, Madison, WI, USA
T5 sequence (P08684 2-503 limits assumed): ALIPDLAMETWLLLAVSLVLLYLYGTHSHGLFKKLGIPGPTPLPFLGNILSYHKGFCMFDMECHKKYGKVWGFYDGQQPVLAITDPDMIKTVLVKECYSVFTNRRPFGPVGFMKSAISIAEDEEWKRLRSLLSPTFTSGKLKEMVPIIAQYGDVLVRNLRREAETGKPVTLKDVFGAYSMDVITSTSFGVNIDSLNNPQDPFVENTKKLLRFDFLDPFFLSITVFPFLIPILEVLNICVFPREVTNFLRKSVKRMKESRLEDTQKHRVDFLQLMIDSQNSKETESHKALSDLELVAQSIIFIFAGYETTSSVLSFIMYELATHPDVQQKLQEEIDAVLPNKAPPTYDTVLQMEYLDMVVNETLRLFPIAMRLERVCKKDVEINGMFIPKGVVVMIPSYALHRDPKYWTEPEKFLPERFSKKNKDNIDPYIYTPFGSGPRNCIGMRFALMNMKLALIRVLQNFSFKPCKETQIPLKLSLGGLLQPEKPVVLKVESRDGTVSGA
Protocol: as §1

CYP1A2 = molecular target: T6, CYP1A2 (Homo sapiens, UniProt P05177); assay: CYP inhibition assay (Vivid CYP450 screening kit); type: in vitro ADME; settings: 10 μM compound
T6 construct: purchased Invitrogen, Madison, WI, USA
T6 sequence (P05177 2-516 limits assumed): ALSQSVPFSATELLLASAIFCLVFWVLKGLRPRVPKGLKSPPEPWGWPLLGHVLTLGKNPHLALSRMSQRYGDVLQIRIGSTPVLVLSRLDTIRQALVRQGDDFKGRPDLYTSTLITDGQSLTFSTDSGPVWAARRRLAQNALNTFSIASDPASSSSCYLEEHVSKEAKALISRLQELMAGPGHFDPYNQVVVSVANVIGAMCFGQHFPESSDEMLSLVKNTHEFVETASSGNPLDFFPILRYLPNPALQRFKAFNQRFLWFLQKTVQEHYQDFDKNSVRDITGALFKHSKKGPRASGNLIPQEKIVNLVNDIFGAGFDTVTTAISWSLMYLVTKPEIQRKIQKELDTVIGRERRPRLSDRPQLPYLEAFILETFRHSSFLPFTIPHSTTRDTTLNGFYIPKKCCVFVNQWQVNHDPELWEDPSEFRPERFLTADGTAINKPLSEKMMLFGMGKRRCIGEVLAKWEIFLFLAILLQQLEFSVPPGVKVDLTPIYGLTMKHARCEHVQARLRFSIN
Protocol: as §1

[2] = Liver microsomal stability; type: in vitro ADME; settings: human, liver microsomes, 1 µM compound, 0.5 mg/mL microsomes, 30 min, 37 °C; read-out: Human Liver Microsomal Stability (% remaining after 30 min)
Protocol: Liver microsomes (human, dog, rat, and mouse; 0.5 mg/mL) were incubated with 1 µM of each test compound in the presence of potassium phosphate buffer (PPB) for 5 min at 37 °C. A solution of the NADPH regeneration system (#44332000, Oriental Yeast Co., Japan) was added to begin metabolic reactions of liver microsomes. The resulting mixtures were incubated for 30 min at 37 °C, and the reaction was terminated by the addition of a cold MeCN solution containing an internal standard (chlorpropamide). The mixture was separated by centrifugation (14,000 rpm for 5 min at 4 °C), and the supernatant was analysed by LC-MS/MS (Shimadzu Nexera XR system and TSQ vantage; Thermo Scientific).

Structure (SMILES)	viability at 24 h, 5 µM [1] [%]	IC50 (hERG channel) [µM]	CYP450 (% remaining Activity at 10 μM) CYP2C9 (CYP2C9) [%]	CYP450 (% remaining Activity at 10 μM) CYP2C19 (CYP2C19) [%]	CYP450 (% remaining Activity at 10 μM) CYP2D6 (CYP2D6) [%]	CYP450 (% remaining Activity at 10 μM) CYP3A4 (CYP3A4) [%]	CYP450 (% remaining Activity at 10 μM) CYP1A2 (CYP1A2) [%]	remaining at 0.5 h, 1 µM [2] [%]
COc1ccc(NC(=O)CSc2nc3sc4c(c3c(=O)n2C(C)C)CCN(C(C)=O)C4)cc1OC [Compound 62]	94							
CCCCN(CCCC)C(=O)CSc1nc2sc3c(c2c(=O)n1-c1ccc(OCC)cc1)CCN(C(C)=O)C3 [Compound 40]	107	2.43 ± 0.48	33.6	57.4	79.8	38.9	103.0	
CCOc1ccc(-n2c(SCC(=O)N3CCC(Cc4ccccc4)CC3)nc3sc4c(c3c2=O)CCN(C(C)=O)C4)cc1 [Compound 47]	94		15.6	15.0	64.0	66.2	81.5	2.2
CCOc1ccc(-n2c(SCC(=O)Nc3ccc(OC)c(OC)c3)nc3sc4c(c3c2=O)CCN(C)C4)cc1 [Compound 48]	106		33.7	20.3	57.8	20.7	35.8	63.4
CCCCN(CCCC)C(=O)CSc1nc2sc3c(c2c(=O)n1-c1ccc(OCC)cc1)CCN(C)C3 [Compound 57]	110							
CCOc1ccc(-n2c(SCC(=O)N(CC)CC)nc3sc4c(c3c2=O)CCN(C(C)=O)C4)cc1 [Compound 38]	77							
COc1ccc(-n2c(SCC(=O)Nc3ccc(F)c(F)c3)nc3sc4c(c3c2=O)CCN(C(C)=O)C4)cc1 [Compound 27]	92							
CCOc1ccc(-n2c(SCC(=O)NCc3ccc(C)cc3)nc3sc4c(c3c2=O)CCN(C)C4)cc1 [Compound 54]	107							
CCOc1ccc(-n2c(SCC(=O)NCCN3CCCCC3)nc3sc4c(c3c2=O)CCN(C(C)=O)C4)cc1 [Compound 28]	71							
CCCCNC(=O)CSc1nc2sc3c(c2c(=O)n1-c1ccc(OCC)cc1)CCN(C(C)=O)C3 [Compound 43]	79							
COc1ccc(NC(=O)CSc2nc3sc4c(c3c(=O)n2CC(C)C)CCN(C(C)=O)C4)cc1OC [Compound 60]	96							
CCCN(CCC)C(=O)CSc1nc2sc3c(c2c(=O)n1-c1ccc(OCC)cc1)CCN(C(C)=O)C3 [Compound 39]	99	5.87 ± 1.18	61.0	64.0	95.1	51.8	143.1	
CCOc1ccc(-n2c(SCC(=O)N3CCN(Cc4ccccc4)CC3)nc3sc4c(c3c2=O)CCN(C(C)=O)C4)cc1 [Compound 45]	113		14.9	23.2	107.0	89.1	110.5	4.3
CCCN(CCC)C(=O)CSc1nc2sc3c(c2c(=O)n1-c1ccc(OCC)cc1)CCN(C)C3 [Compound 56]	108	12.9 ± 3.03	44.5	30.5	89.2	30.9	71.9	
CCOc1ccc(-n2c(SCC(=O)Nc3ccc(Cl)cc3)nc3sc4c(c3c2=O)CCN(C)C4)cc1 [Compound 53]	89							
CCn1c(SCC(=O)Nc2ccc(OC)c(OC)c2)nc2sc3c(c2c1=O)CCN(C(C)=O)C3 [Compound 58]	99							
CCCCn1c(SCC(=O)Nc2ccc(OC)c(OC)c2)nc2sc3c(c2c1=O)CCN(C(C)=O)C3 [Compound 61]	97							
CCCn1c(SCC(=O)Nc2ccc(OC)c(OC)c2)nc2sc3c(c2c1=O)CCN(C(C)=O)C3 [Compound 59]	112							
